{
  "source": "patent US9403874B2",
  "about": "“Peptides and use thereof” (IL YANG PHARM. CO.,LTD., priority 2012, dated 2016)",
  "key": {"IL-10": {"test_system": "IL-10", "assay": "Reduction of IL-10 secretion in activated B cells (ELISA)", "format": "cell-based", "settings": "100 ng/me of peptide; EBV-infected B cells stimulated with anti-CD150; ELISA of culture supernatant", "in_short": "(§1)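 Cells: EBV-infected B cells + anti-CD150 Ab (pathogenic activation). Peptide 100 ng/me. Supernatant ELISA, A450–A570. Result = % of anti-CD150-only control (100%).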"}, "IL-4": {"test_system": "IL-4", "assay": "Reduction of IL-4 secretion in activated B cells (ELISA)", "format": "cell-based", "settings": "100 ng/me of peptide; EBV-infected B cells stimulated with anti-CD150; ELISA of culture supernatant", "in_short": "as §1"}, "IL-17A": {"test_system": "IL-17A", "assay": "Reduction of IL-17A secretion in activated B cells (ELISA)", "format": "cell-based", "settings": "100 ng/me of peptide; EBV-infected B cells stimulated with anti-CD150; ELISA of culture supernatant", "in_short": "as §1"}, "IL-8": {"test_system": "IL-8", "assay": "Reduction of IL-8 secretion in activated B cells (ELISA)", "format": "cell-based", "settings": "100 ng/me of peptide; EBV-infected B cells stimulated with anti-CD150; ELISA of culture supernatant", "in_short": "as §1"}, "IL-1A": {"test_system": "IL-1A", "assay": "Reduction of IL-1A secretion in activated B cells (ELISA)", "format": "cell-based", "settings": "100 ng/me of peptide; EBV-infected B cells stimulated with anti-CD150; ELISA of culture supernatant", "in_short": "as §1"}, "IL-2": {"test_system": "IL-2", "assay": "Reduction of IL-2 secretion in activated B cells (ELISA)", "format": "cell-based", "settings": "100 ng/me of peptide; EBV-infected B cells stimulated with anti-CD150; ELISA of culture supernatant", "in_short": "as §1"}, "IL-13": {"test_system": "IL-13", "assay": "Reduction of IL-13 secretion in activated B cells (ELISA)", "format": "cell-based", "settings": "100 ng/me of peptide; EBV-infected B cells stimulated with anti-CD150; ELISA of culture supernatant", "in_short": "as §1"}, "IL-5": {"test_system": "IL-5", "assay": "Reduction of IL-5 secretion in activated B cells (ELISA)", "format": "cell-based", "settings": "100 ng/me of peptide; EBV-infected B cells stimulated with anti-CD150; ELISA of culture supernatant", "in_short": "as §1"}, "[1]": {"test_system": "TPA-induced ear edema mouse model", "assay": "TPA-induced ear edema mouse model", "format": "in vivo", "settings": "6 hours after TPA application, intraperitoneal, twice", "source_text": "The present inventors confirmed that the peptides of the present invention are effective in alleviating inflammation invivo, along with reduction of the secretion of inflammatory cytokines as confirmed in Example 2. To be specific, in order to identify the anti-inflammatory effect of the peptide SIS-1, which is a representative peptide of 18 types of novel peptides prepared in Example 1, the present inventors used the method for evaluating the mouse ear edema wherein 12-O-tetradecanoylphorbol-13-acetate (TPA) induces acute inflammation as described in the literature (Eur J Pharmacol. 2011: 15; 672(1-3):175-179).\nThe TPA-induced ear edema mouse model is an animal model where erythema and edema caused by acute inflammation can be observed and it was prepared by the following method. The 24 mice of 5-week-old ICR mouse ([…], mal, central laboratory animals, Korea) were divided into 6 mice per group, and their hairs of both ears were removed before applying the sample. […]\nThe anti-inflammatory effect of the peptide SIS-1 was determined by observing the degree of edema inhibition as compared to the control group injected with vehicle. After 6 hours of TPA application, pictures of both ears were taken to determine the degree of ear edema, and the degree of inflammation alleviated was determined by measuring the thickness and weight per certain area of ear."}, "GM-CSF": {"test_system": "GM-CSF", "assay": "Reduction of GM-CSF secretion in activated B cells (ELISA)", "format": "cell-based", "settings": "100 ng/me of peptide; EBV-infected B cells stimulated with anti-CD150; ELISA of culture supernatant", "in_short": "as §1"}, "[2]": {"test_system": "collagen-induced arthritis mouse model", "assay": "Collagen-induced arthritis mouse model", "format": "in vivo", "description": "In order to investigate the therapeutic effect of the peptide SIS-1, which is a representative peptide of the 18 types of novel peptides prepared in Example 1 against a representative autoimmune disease, arthritis, the experiment was performed using the collagen-induced arthritis mouse model of the literature (Nature, 283, pp 666-668, 1980; Arthritis Rheum, 46, pp 793-801, 2002).\nThe collagen-induced arthritis (CIA) is the model with arthritis of autoimmune disease type having similar characteristics as human rheumatoid arthritis and it was prepared by the following method.\nThe 100 μg of bovine type II collagen (Chondrex four, United States) was emulsified by mixing it with Freund's complete adjuvant (Chondrex, USA), and 7-week-old DBA/1 mouse ([…], male, central laboratory animals, Korea) was immunized by injecting the emulsified collagen solution intradermally at the tail region. On the 14th day of the first immunization, 50 μg of bovine type II collagen (Chondrex four, United States) was emulsified by mixing it with Freund's complete adjuvant (Chondrex, USA), and the second immune (boosting) response was induced by injecting the same intradermally at the tail region.\nThe novel peptide SIS-1 and a control drug, dexamethasone (DEX), were intraperitoneally administered three times a week from the next day of inducing the second immune response, and the control group (CIA) was treated with PBS.\nIn order to monitor the development of arthritis, the thickness of foot was measured using loop handle thickness gauge (Mitutoyo) while observing the weight change and the level of pathogenesis. In addition, the severity of the joint inflammation was assessed three times a week by two observers without knowing the contents of the experiment. Assessment of arthritis was performed by adding the scores for four legs per one mouse according to the following criteria, based on the arthritis progression index by Rossoliniec, et al. and then by taking the average of the values measured by two observers. The score and criteria for assessing arthritis are as follows:\n0 point: no edema or swelling\n1 point: mild edema and redness confined to foot or ankle joint\n2 points: mild edema and redness in ankle joint through metatarsal\n3 points: moderate edema and redness in ankle joint through metatarsal\n4 points: edema and redness through the whole leg, and appearance of acampsia\nThe maximum arthritis index is 4 points per leg, and the maximum disease index per mouse is 16.\nIn order to determine the damage in the cartilage of joints, the histological examination was performed after completion of the test. On the 9th week of the animal model test, after the test animal was killed, the hind leg of the mouse hind was fixed with 10% formalin and coated with paraffin after removing compounds of calcium from the bones. Joint section was prepared and stained with hematoxylin and eosin."}, "IL-34": {"test_system": "IL-34", "assay": "Reduction of IL-34 secretion in activated B cells (ELISA)", "format": "cell-based", "settings": "100 ng/me of peptide; EBV-infected B cells stimulated with anti-CD150; ELISA of culture supernatant", "in_short": "as §1"}, "[3]": {"test_system": "antibodies specific to bovine type II collagen", "assay": "Serological analysis in collagen-induced arthritis mice (ELISA)", "format": "in vivo, mouse", "settings": "serum of CIA mice", "description": "In order to determine the therapeutic effect of the novel peptide SIS-1 for arthritis, enzyme-linked immunosorbent assay (ELISA) was performed to measure the antibodies specific to bovine type II collagen with the serological test. As mentioned in the literature, IgG antibody, known as the rheumatoid factor (RF), or subtype of IgG (IgG1 and IgG2a) and IgM autoantibody are known to form immune complexes, cause inflammation, and develop the lesions of rheumatoid arthritis (Journal of Ethnopharmacology 112 (2007) 408).\nAfter diluting the serum of each test group in a ratio of 1:25000 (IgG) or 1:10000 (IgG1, IgG2a, IgM), the titer of serum autoantibody specific to type II collagen was measured."}, "IL-1B": {"test_system": "IL-1B", "assay": "Reduction of IL-1B secretion in activated B cells (ELISA)", "format": "cell-based", "settings": "100 ng/me of peptide; EBV-infected B cells stimulated with anti-CD150; ELISA of culture supernatant", "in_short": "as §1"}, "IL-12A": {"test_system": "IL-12A", "assay": "Reduction of IL-12A secretion in activated B cells (ELISA)", "format": "cell-based", "settings": "100 ng/me of peptide; EBV-infected B cells stimulated with anti-CD150; ELISA of culture supernatant", "in_short": "as §1"}, "IL-6": {"test_system": "IL-6", "assay": "Reduction of IL-6 secretion in activated B cells (ELISA)", "format": "cell-based", "settings": "100 ng/me of peptide; EBV-infected B cells stimulated with anti-CD150; ELISA of culture supernatant", "in_short": "as §1"}},
  "data": [
    {"sequence": "MSLPSPRDGRTDGRTDCTR (SIS-1 peptide)", "values": [
      {"measurement": "Inhibition rate of each cytokine compared to CD150-stimulated EBV-t B cells (%) IL-10", "setting": "IL-10", "value": 47.6, "unit": "%"},
      {"measurement": "Inhibition rate of each cytokine compared to CD150-stimulated EBV-t B cells (%) IL-4", "setting": "IL-4", "value": 59.9, "unit": "%"},
      {"measurement": "Inhibition rate of each cytokine compared to CD150-stimulated EBV-t B cells (%) IL-17A", "setting": "IL-17A", "value": 63.6, "unit": "%"},
      {"measurement": "Inhibition rate of each cytokine compared to CD150-stimulated EBV-t B cells (%) IL-8", "setting": "IL-8", "value": 53.8, "unit": "%"},
      {"measurement": "Inhibition rate of each cytokine compared to CD150-stimulated EBV-t B cells (%) IL-1A", "setting": "IL-1A", "value": 22.7, "unit": "%"},
      {"measurement": "Inhibition rate of each cytokine compared to CD150-stimulated EBV-t B cells (%) IL-2", "setting": "IL-2", "value": 19.7, "unit": "%"},
      {"measurement": "Inhibition rate of each cytokine compared to CD150-stimulated EBV-t B cells (%) IL-13", "setting": "IL-13", "value": 37.6, "unit": "%"},
      {"measurement": "Inhibition rate of each cytokine compared to CD150-stimulated EBV-t B cells (%) IL-5", "setting": "IL-5", "value": 30.3, "unit": "%"},
      {"measurement": "erythema increased by TPA application", "setting": "[1]", "value": "reduced"},
      {"measurement": "inflammatory response (thickness and weight of ear increased by TPA edema)", "setting": "[1]", "value": "inhibited significantly"},
      {"measurement": "Inhibition rate of each cytokine compared to CD150-stimulated EBV-t B cells (%) GM-CSF", "setting": "GM-CSF", "value": 60.5, "unit": "%"},
      {"measurement": "onset of disease symptom", "setting": "[2]; after second immunization, versus CIA group", "value": "delayed"},
      {"measurement": "mouse weight", "setting": "[2]; after second immunization, intraperitoneal three times a week", "value": "maintained similar to that of Normal group"},
      {"measurement": "incidence of arthritis", "setting": "[2]; by the end of the test, intraperitoneal three times a week", "value": 87.5, "unit": "%"},
      {"measurement": "arthritis progression index", "setting": "[2]; compared to the CIA group", "value": "reduced"},
      {"measurement": "swelling of ankle joints", "setting": "[2]; compared to the CIA group", "value": "reduced"},
      {"measurement": "destruction of joints and cartilage (histology, hematoxylin and eosin)", "setting": "[2]; hind leg joint sections, 9th week", "value": "maintained at similar level as the normal mice"},
      {"measurement": "Inhibition rate of each cytokine compared to CD150-stimulated EBV-t B cells (%) IL-34", "setting": "IL-34", "value": 43.4, "unit": "%"},
      {"measurement": "reduction of autoantibodies compared with control drug DEX", "setting": "[3]", "value": "as effective as or superior than"},
      {"measurement": "Inhibition rate of each cytokine compared to CD150-stimulated EBV-t B cells (%) IL-1B", "setting": "IL-1B", "value": 25.4, "unit": "%"},
      {"measurement": "Inhibition rate of each cytokine compared to CD150-stimulated EBV-t B cells (%) IL-12A", "setting": "IL-12A", "value": 43.5, "unit": "%"},
      {"measurement": "Inhibition rate of each cytokine compared to CD150-stimulated EBV-t B cells (%) IL-6", "setting": "IL-6", "value": 42.9, "unit": "%"}
    ]}
  ]
}
